Measurements as given in patent US20250101017A1, “SALT CRYSTAL FORM AND FREE BASE CRYSTAL FORM OF KINASE INHIBITOR” (CYTOSINLAB THERAPEUTICS CO., LTD., priority 2022, published 2025).
Converted amounts (≈) assume the structure as drawn. Where two headings read alike, the source gives them in different places.

Assay: Solubility at 37° C. in buffer solutions with different pH (about 10 mg in 1 ml, 2 h and 24 h); filtrate concentration and pH, XRPD of remaining solid
Type: physicochemical
Conditions: for solubility at 2 h / solubility at 24 h: thermodynamic from solid
Experimental: Approximately 10 mg of malate crystal form VII-A and free base Form A were weighed separately, and 1 ml of buffer solutions with different pH were added to make the solution supersaturated, and the mixtures were stirred at 37° C. for 2 h and 24 hours. The samples were filtered, and the filtrates were measured to determine the concentration and pH value, and the remaining solid was subjected to XRPD determination. The specific results were as follows: […]

CCc1nc2c(N)ncc(-c3ccc(N4CCC(N5CCN(CC)CC5)CC4)c(OC)c3)c2nc1NC1CCOCC1 [Free base Form A, 3-ethyl-8-(4-(4-(4-ethylpiperazin-1-yl)piperidin-1-yl)-3-methoxyphenyl)-N2-(tetrahydro-2H-pyran-4-yl) pyridino [3,4-b]pyrazine-2,5-diamine]
solubility at 2 h (buffer solution pH 1.2, 37 °C, pH 1.2, simulated gastric fluid, medium pH 1.2, 2 h, read-out: Solubility at 37° C.): > 10 mg/mL
solubility at 24 h (buffer solution pH 1.2, 37 °C, pH 1.2, simulated gastric fluid, medium pH 1.2, 24 h, read-out: Solubility at 37° C.): > 10 mg/mL
solubility at 2 h (buffer solution pH 3.0, 37 °C, pH 3, aqueous buffer, medium pH 3.0, 2 h, read-out: Solubility at 37° C.): > 10 mg/mL
solubility at 24 h (buffer solution pH 3.0, 37 °C, pH 3, aqueous buffer, medium pH 3.0, 24 h, read-out: Solubility at 37° C.): > 10 mg/mL
solubility at 2 h (buffer solution pH 4.5, 37 °C, pH 4.5, aqueous buffer, medium pH 4.5, 2 h, read-out: Solubility at 37° C.): > 10 mg/mL
solubility at 2 h (buffer solution pH 4.5, 37 °C, pH 4.5, aqueous buffer, medium pH 4.5, 2 h, read-out: Solubility at 37° C. (mg/ml) 2 h): > 10 mg/mL
solubility at 24 h (buffer solution pH 4.5, 37 °C, pH 4.5, aqueous buffer, medium pH 4.5, 24 h, read-out: Solubility at 37° C.): > 10 mg/mL
solubility at 24 h (buffer solution pH 4.5, 37 °C, pH 4.5, aqueous buffer, medium pH 4.5, 24 h, read-out: Solubility at 37° C. (mg/ml) 24 h): > 10 mg/mL
pH (24 h) (filtrate, medium FaSSIF): 5.434
pH (24 h) (filtrate, medium FeSSIF): 4.992
pH (24 h) (filtrate, medium H2O): 4.607
pH (24 h) (filtrate, medium SGF): 1.494
pH (24 h) (filtrate, medium pH 1.2): 1.463
pH (24 h) (filtrate, medium pH 3.0): 3.683
pH (24 h) (filtrate, medium pH 4.5): 4.520
pH (24 h) (filtrate, medium pH 6.8): 6.180
pH (24 h) (filtrate, medium pH 7.4): 6.664
Solubility at 37° C. (mg/ml) 2 h (medium FaSSIF, 2 h): 1.234 mg/mL (≈ 2.15 mM)
Solubility at 37° C. (medium FaSSIF, 2 h, listed as API): 1234 µg/mL (≈ 2.15 mM)
Solubility at 37° C. (mg/ml) 24 h (medium FaSSIF, 24 h): 0.983 mg/mL (≈ 1.71 mM)
Solubility at 37° C. (medium FaSSIF, 24 h, listed as API): 983 µg/mL (≈ 1.71 mM)
Crystal form (medium FaSSIF, XRPD of remaining solid, listed as API): Form A
pH (24 h) (medium FaSSIF, filtrate, 37° C., listed as API): 5.434
Solubility at 37° C. (medium FeSSIF, 2 h): >10000 µg/mL
Solubility at 37° C. (mg/ml) 2 h (medium FeSSIF, 2 h): >10 mg/mL
Solubility at 37° C. (medium FeSSIF, 24 h): >10000 µg/mL
Solubility at 37° C. (mg/ml) 24 h (medium FeSSIF, 24 h): >10 mg/mL
pH (24 h) (medium FeSSIF, filtrate, 37° C., listed as API): 4.992
Solubility at 37° C. (mg/ml) 2 h (medium H2O, 2 h): 0.0365 mg/mL (≈ 0.0635 mM)
Solubility at 37° C. (medium H2O, 2 h, listed as API): 36.5 µg/mL (≈ 0.0635 mM)
Solubility at 37° C. (mg/ml) 24 h (medium H2O, 24 h): 0.0046 mg/mL (≈ 0.008 mM)
Solubility at 37° C. (medium H2O, 24 h, listed as API): 4.6 µg/mL (≈ 0.008 mM)
Crystal form (medium H2O, XRPD of remaining solid, listed as API): Form A
pH (24 h) (medium H2O, filtrate, 37° C., listed as API): 4.607
Solubility at 37° C. (medium SGF, 2 h): >10000 µg/mL
Solubility at 37° C. (mg/ml) 2 h (medium SGF, 2 h): >10 mg/mL
Solubility at 37° C. (medium SGF, 24 h): >10000 µg/mL
Solubility at 37° C. (mg/ml) 24 h (medium SGF, 24 h): >10 mg/mL
pH (24 h) (medium SGF, filtrate, 37° C., listed as API): 1.494
pH (24 h) (medium pH 1.2, filtrate, 37° C., listed as API): 1.463
pH (24 h) (medium pH 3.0, filtrate, 37° C., listed as API): 3.683
pH (24 h) (medium pH 4.5, filtrate, 37° C., listed as API): 4.520
Solubility at 37° C. (mg/ml) 2 h (medium pH 6.8, 2 h): 0.294 mg/mL (≈ 0.512 mM)
Solubility at 37° C. (medium pH 6.8, 2 h, listed as API): 294 µg/mL (≈ 0.512 mM)
Solubility at 37° C. (mg/ml) 24 h (medium pH 6.8, 24 h): 0.271 mg/mL (≈ 0.471 mM)
Solubility at 37° C. (medium pH 6.8, 24 h, listed as API): 271 µg/mL (≈ 0.471 mM)
Crystal form (medium pH 6.8, XRPD of remaining solid, listed as API): Form A
pH (24 h) (medium pH 6.8, filtrate, 37° C., listed as API): 6.180
Solubility at 37° C. (mg/ml) 2 h (medium pH 7.4, 2 h): 0.012 mg/mL (≈ 0.0209 mM)
Solubility at 37° C. (medium pH 7.4, 2 h, listed as API): 12 µg/mL (≈ 0.0209 mM)
Solubility at 37° C. (mg/ml) 24 h (medium pH 7.4, 24 h): 0.016 mg/mL (≈ 0.0278 mM)
Solubility at 37° C. (medium pH 7.4, 24 h, listed as API): 16 µg/mL (≈ 0.0278 mM)
Crystal form (medium pH 7.4, XRPD of remaining solid, listed as API): Form A
pH (24 h) (medium pH 7.4, filtrate, 37° C., listed as API): 6.664
solubility at 2 h (pH 1.2 buffer solution, 37 °C, pH 1.2, simulated gastric fluid, medium pH 1.2, 2 h, read-out: Solubility at 37° C. (mg/ml) 2 h): > 10 mg/mL
solubility at 24 h (pH 1.2 buffer solution, 37 °C, pH 1.2, simulated gastric fluid, medium pH 1.2, 24 h, read-out: Solubility at 37° C. (mg/ml) 24 h): > 10 mg/mL
solubility at 2 h (pH 3.0 buffer solution, 37 °C, pH 3, aqueous buffer, medium pH 3.0, 2 h, read-out: Solubility at 37° C. (mg/ml) 2 h): > 10 mg/mL
